# Assay results from patent US20250326744A1, “PIPERAZINE DERIVATIVE OR SALT THEREOF, AND PHARMACEUTICAL COMPOSITION” (priority 2022, published 2025).
# Structures can show the parent of a compound that is named as a salt.
# Columns and labels:
# S-3769 strain = test: Combinational effect with antibacterial agent against Pseudomonas aeruginosa (Test Examples 2 and 4): S-3769 strain with AMK or GM at 1/4 MIC, EC99; format: cell-based; conditions: Table 52, Test Example 2, 16 to 20 hours culture, OD595; for EC99, S-3769 strain, AMK: combined with AMK at 1/4 MIC; for EC99, S-3769 strain, GM: combined with GM at 1/4 MIC
# Protocol: (§1) The combinational effect of the test compound with the antibacterial agent against Pseudomonas aeruginosa was evaluated.
# The […] was used for evaluating the inhibitory ability against MexXY-OprM. AMK or GM was used as the antibacterial agent used in combination.
# The S-3769 strain is a clinically isolated strain collected from a domestic medical institution, and is a strain in which the expression level of MexY is accelerated.
# (§2) AMK and GM are aminoglycoside-based antibacterial agents, and are drugs that are not discharged outside the bacteria by MexB but are discharged outside the bacteria by MexY For the culture of each Pseudomonas aeruginosa strain, a 96-well plate (amount of culture medium per well: 100 μL) was used, and cation-adjusted Mueller Hinton broth (CAMHB) was used. The inoculation amount of the bacteria was set to 10^4 to 5 CFU/well.
# (§3) The mexB (PA) strain and the S-3769 strain were cultured for 16 to 20 hours in a culture medium to which each antibacterial agent and test compounds at various concentrations (0 to 800 μM) were added, and the proliferation of the bacterial strains was evaluated by optical turbidity at 595 nm (OD595). The concentration of the antibacterial agent in the culture medium was set to ¼ MIC.
# (§4) The proliferation of bacteria in a case where the test compound and the antibacterial agent were not added was measured, and compared with the proliferation of bacteria in a case where the test compound in a case where the antibacterial agent was added at the concentration of ¼ MIC was contained, and the lowest concentration of the test compound at which the proliferation was inhibited by 99% or more was defined as the drug efflux pump inhibitory ability of the test compound as 99% inhibitory effect concentration (EC99).
# (§5) The effect of suppressing the proliferation of each test compound in combination with an antibacterial agent at ¼ MIC for mexB (PA) or the S-3769 strain was evaluated as follows according to the value of EC99. • S: EC99≤12.5 μM • A: 12.5 μM<EC99≤25 μM • B: 25 μM<EC99≤100 μM • C: 100 μM<EC99
# (§6) The combinational effect of the test compound with the antibacterial agent against Pseudomonas aeruginosa was evaluated in the same manner as in Test Example 2.
# mexB (PA) strain = test: Combinational effect with antibacterial agent against Pseudomonas aeruginosa (Test Examples 2 and 4): mexB (PA) strain with LVFX, TC or AZT at 1/4 MIC, EC99; format: cell-based; conditions: Table 52, Test Example 2, 16 to 20 hours culture, OD595; for EC99, mexB (PA), AZT: combined with AZT at 1/4 MIC; for EC99, mexB (PA), LVFX: combined with LVFX at 1/4 MIC; for EC99, mexB (PA), TC: combined with TC at 1/4 MIC
# Protocol: as §1
# For the evaluation of the inhibitory ability against MexAB-OprM, a mutant strain of Pseudomonas aeruginosa in which MexAB-OprM was expressed as a main drug efflux pump (hereinafter, referred to as a “mexB (PA) strain”) was used. LVFX, TC, or AZT was used as the antibacterial agent used in combination.
# The mexB (PA) strain is a strain produced by deleting the genes of MexCD-OprJ, MexEF-OprN, and MexXY in the drug efflux pump of Pseudomonas aeruginosa described in FEMS Microbiology Letters, 2001, Vol. 202, pp. 139 to 143. In the mexB (PA) strain, an expression level of MexB as a drug efflux pump is accelerated.
# TC is a tetracycline-based antibacterial agent and is a drug that is discharged outside the bacteria by MexB. AZT is a monobactam-based antibacterial agent and is a drug that is discharged outside the bacteria by MexB.
# as §2, §3, §4, §5, §6
SMILES,"EC99, S-3769 strain, AMK (S-3769 strain)","EC99, S-3769 strain, GM (S-3769 strain)","EC99, mexB (PA), AZT (mexB (PA) strain)","EC99, mexB (PA), LVFX (mexB (PA) strain)","EC99, mexB (PA), TC (mexB (PA) strain)"
"CCOc1cccc(F)c1CN1CCN(C(=O)[C@H](N)C2CCN(CCc3c(F)cccc3-c3ccccc3)CC2)CC1 [Example 52, Hydrobromide of (R)-2-amino-1-(4-(2-ethoxy-6-fluorobenzyl)piperazin-1-yl)-2-(1-(2-(3-fluoro-[1,l′-biphenyl]-2-yl)ethyl)piperidin-4-yl)ethan-1-one]",A (12.5 μM<EC99≤25 μM),S (EC99≤12.5 μM),B (25 μM<EC99≤100 μM),B (25 μM<EC99≤100 μM),B (25 μM<EC99≤100 μM)
"CCOc1cccc(F)c1CN1CCN(C(=O)[C@H](N)C2CCN(CCc3c(Cl)cccc3-c3ccccc3)CC2)CC1 [Example 53, Hydrobromide of (R)-2-amino-2-(1-(2-(3-chloro-[1,1′-biphenyl]-2-yl)ethyl)piperidin-4-yl)-1-(4-(2-ethoxy-6-fluorobenzyl)piperazin-1-yl)ethan-1-one]",S (EC99≤12.5 μM),S (EC99≤12.5 μM),B (25 μM<EC99≤100 μM),B (25 μM<EC99≤100 μM),B (25 μM<EC99≤100 μM)
"CCOc1cccc(F)c1CN1CCN(C(=O)[C@H](N)C2CCN(CCc3cc(Cl)ccc3C3=CCCCC3)CC2)CC1 [Example 56, Hydrobromide of (R)-2-amino-2-(1-(2-(4-chloro-2′,3′,4′,5′-tetrahydro-[1,1′-biphenyl]-2-yl)ethyl)piperidin-4-yl)-1-(4-(2-ethoxy-6-fluorobenzyl)piperazin-1-yl)ethan-1-one]",A (12.5 μM<EC99≤25 μM),A (12.5 μM<EC99≤25 μM),B (25 μM<EC99≤100 μM),C (100 μM<EC99),B (25 μM<EC99≤100 μM)
"CCOc1cccc(F)c1CN1CCN(C(=O)[C@H](N)C2CCN(CCc3cc(Cl)ccc3-c3cccc(S(F)(F)(F)(F)F)c3)CC2)CC1 [Example 57, Hydrobromide of (R)-2-amino-2-(1-(2-(4-chloro-3′-(pentafluoro-λ6-sulfanyl)-[1,1′-biphenyl]-2-yl)ethyl)piperidin-4-yl)-1-(4-(2-ethoxy-6-fluorobenzyl)piperazin-1-yl) ethan-1-one]",B (25 μM<EC99≤100 μM),B (25 μM<EC99≤100 μM),C (100 μM<EC99),C (100 μM<EC99),B (25 μM<EC99≤100 μM)
"CCOc1cccc(F)c1CN1CCN(C(=O)[C@H](N)C2CCN(CCc3cc(Cl)ccc3-c3cccc(P(C)(C)=O)c3)CC2)CC1 [Example 58, Hydrobromide of (R)-2-amino-2-(1-(2-(4-chloro-3′-(dimethylphosphoryl)-[1,1′-biphenyl]-2-yl)ethyl)piperidin-4-yl)-1-(4-(2-ethoxy-6-fluorobenzyl)piperazin-1-yl) ethan-1-one]",A (12.5 μM<EC99≤25 μM),B (25 μM<EC99≤100 μM),C (100 μM<EC99),C (100 μM<EC99),C (100 μM<EC99)
"CCOc1cccc(F)c1CN1CCN(C(=O)[C@H](N)C2CCN(CCc3cc(Cl)ccc3-c3cccc(C#N)c3)CC2)CC1 [Example 65, Hydrobromide of (R)-2′-(2-(4-(1-amino-2-(4-(2-ethoxy-6-fluorobenzyl)piperazin-1-yl)-2-oxoethyl)piperidin-1-yl)ethyl)-4′-chloro-[1,1′-biphenyl]-3-carbonitrile]",A (12.5 μM<EC99≤25 μM),A (12.5 μM<EC99≤25 μM),B (25 μM<EC99≤100 μM),C (100 μM<EC99),B (25 μM<EC99≤100 μM)
"CCOc1cccc(F)c1CN1CCN(C(=O)[C@H](N)C2CCN(CCc3cc(Cl)ccc3-c3cccc(C)c3)CC2)CC1 [Example 68, Hydrobromide of (R)-2-amino-2-(1-(2-(4-chloro-3′-methyl-[1,1′-biphenyl]-2-yl)ethyl)piperidin-4-yl)-1-(4-(2-ethoxy-6-fluorobenzyl)piperazin-1-yl)ethan-1-one]",A (12.5 μM<EC99≤25 μM),A (12.5 μM<EC99≤25 μM),B (25 μM<EC99≤100 μM),B (25 μM<EC99≤100 μM),B (25 μM<EC99≤100 μM)
"CCOc1cccc(F)c1CN1CCN(C(=O)[C@H](N)C2CCN(CCc3cc(Cl)ccc3-c3ccc(C)cc3)CC2)CC1 [Example 69, Hydrobromide of (R)-2-amino-2-(1-(2-(4-chloro-4′-methyl-[1,1′-biphenyl]-2-yl)ethyl)piperidin-4-yl)-1-(4-(2-ethoxy-6-fluorobenzyl)piperazin-1-yl)ethan-1-one]",S (EC99≤12.5 μM),S (EC99≤12.5 μM),C (100 μM<EC99),C (100 μM<EC99),B (25 μM<EC99≤100 μM)
"CCOc1cccc(F)c1CN1CCN(C(=O)[C@H](N)C2CCN(CCc3cc(Cl)ccc3C3=CCNCC3)CC2)CC1 [Example 71, (R)-2-amino-2-(1-(5-chloro-2-(1,2,3,6-tetrahydropyridin-4-yl)phenethyl)piperidin-4-yl)-1-(4-(2-ethoxy-6-fluorobenzyl)piperazin-1-yl)ethan-1-one]",S (EC99≤12.5 μM),S (EC99≤12.5 μM),C (100 μM<EC99),B (25 μM<EC99≤100 μM),S (EC99≤12.5 μM)
"CCOc1cccc(F)c1CN1CCN(C(=O)[C@H](N)C2CCN(CCc3cc(Cl)ccc3-c3cccs3)CC2)CC1 [Example 72, Hydrobromide of (R)-2-amino-2-(1-(5-chloro-2-(thiophen-2-yl)phenethyl)piperidin-4-yl)-1-(4-(2-ethoxy-6-fluorobenzyl)piperazin-1-yl)ethan-1-one]",S (EC99≤12.5 μM),S (EC99≤12.5 μM),B (25 μM<EC99≤100 μM),C (100 μM<EC99),B (25 μM<EC99≤100 μM)
"CCOc1cccc(F)c1CN1CCN(C(=O)[C@H](N)C2CCN(CCc3cc(Cl)ccc3-c3cccnc3)CC2)CC1 [Example 73, Hydrobromide of (R)-2-amino-2-(1-(5-chloro-2-(pyridin-3-yl)phenethyl)piperidin-4-yl)-1-(4-(2-ethoxy-6-fluorobenzyl)piperazin-1-yl)ethan-1-one]",S (EC99≤12.5 μM),S (EC99≤12.5 μM),A (12.5 μM<EC99≤25 μM),C (100 μM<EC99),B (25 μM<EC99≤100 μM)
"CCOc1cccc(F)c1CN1CCN(C(=O)[C@H](N)C2CCN(CCc3cc(Cl)ccc3-c3ccncc3)CC2)CC1 [Example 74, Hydrobromide of (R)-2-amino-2-(1-(5-chloro-2-(pyridin-4-yl)phenethyl)piperidin-4-yl)-1-(4-(2-ethoxy-6-fluorobenzyl)piperazin-1-yl)ethan-1-one]",S (EC99≤12.5 μM),A (12.5 μM<EC99≤25 μM),C (100 μM<EC99),C (100 μM<EC99),C (100 μM<EC99)
